Results: patent publication US5504097A, “N-hydroxyureas as 5-lipoxygenase inhibitors and inhibitors of oxidative modification of low density lipoprotein” (American Home Products Corporation, priority 1995, dated 1996)

Assays:
Lipoxygenase = assay: Ex-Vivo Measurement of Lipoxygenase Inhibition in Orally Dosed Rats (LTB4 in A23187-stimulated blood); design: species or system Male Sprague Dawley rats; details: p.o.
Experimental: 2. Ex-Vivo Measurement of Lipoxygenase Inhibition in Orally Dosed Rats
After an interval of 3 or 6 hours, the rats were anesthetized with metofane (n=4/group) and blood collected in heparinized tubes. White blood cell counts and differentials were made. One ml of blood from each animal was placed in a 5 ml plastic tube in a shaker bath at 37° C. A23187 at a final concentration of 10 μM was added to the blood and the blood vortexed and incubated for 15 min at 37° C. with gentle shaking. Incubation was terminated by vortexing sample and centrifuging immediately at 1200× G for 15 min at 4° C. The plasma was transferred to 15 ml plastic tubes each containing 8 ml of methanol to precipitate protein followed by vortexing. The samples were stored at -70° C. overnight and the next day the samples were centrifuged at 800× G for 15 min to pellet the precipitate. The samples were dried in a Savant SpeedVac Concentrator Model SVC 200H and reconstituted to the original volume with cold RIA or ELISA buffer. The reconstituted samples were stored at -70° C. until assayed. The assay for LTB4 was performed according to the directions of the ^3 H!RIA kit or ELISA kit (Seragen). The total metabolite level in 1 ml of blood is calculated and reported as ng/10^6 neutrophils. Significance is determined by a one-way analysis of variance with LSD comparisons to control (p≤0.05).

[1] = system: LT-dependent bronchoconstriction; assay: Inhibition of Bronchoconstriction in Guinea Pigs Induced by Exogenously Administered Antigen (ovalbumin); assay type: in vivo, Male guinea pigs; details: Cavia porcellus, 5 min; for inhibition in vivo at 10 mg/kg: iv
Experimental: 4. Inhibition of Brochoconstriction in Guinea Pigs Induced by Exogenously Administered Antigen
Male guinea pigs (Charles River, Wilmington, Mass.) were sensitized 3-4 weeks prior to antigen challenge by administration of 2 i.m. injections of ovalbumin, 1 into each hind limb (35 mg total). Sensitized animals (500-600 g) were fasted overnight prior to experimentation. Conscious animals were then dosed p.o. with drug or vehicle alone (0.5% Tween 80 in H2 O) at the indicated times prior to antigen challenge, or anesthetized animals were dosed i.v. with drug or vehicle alone (DMSO) 5 min prior to antigen challenge. Animals were anesthetized by urethane (2.8 g/kg i.p.). A carotid artery and jugular vein were cannulated to allow for the monitoring of blood pressure and the administration of drugs, respectively. The trachea was then cannulated and connected to a Harvard Apparatus rodent ventilator (S. Natick, Mass). Spontaneous respiration was abolished by the administration of succinylcholine (2.5 mg/kg i.v.). The animals were then ventilated with room air at a rate of 65 breaths per min. Airway inflation pressure was measured using a Statham pressure transducer (Gould Instruments, Cleveland, Ohio) connected to the tracheal cannula via a side-arm and recorded on a Grass Instruments recorder (Quincy, Mass). The tidal volume (approximately 10 cc/kg) was adjusted to give a baseline inflation pressure of 8-10 cm H2 O at end inspiration. Animals were then allowed 20 min to stabilize.
Following the stabilization period, animals were given i.v. injections of pyrilamine (5 mg/kg), propranolol (0.1 mg/kg) and indomethacin (10 mg/kg) at 15, 10 and 5 min, respectively, prior to antigen challenge. This pretreatment results in an LT-dependent bronchoconstriction following antigen challenge, which was accomplished by i.v. administration of ovalbumin (10 mg/kg). Only one bronchoconstriction per animal was induced. End-inspiratory inflation pressure (in cm H2 O over baseline) was measured at 5 min post-antigen challenge. A mean value and standard error for the % inhibition of control bronchoconstriction in each drug-treated group was then calculated.

LTB4 = assay: Reverse Passive Arthus Reaction (pleurisy), LTB4 in pleural exudate; assay type: in vivo, male Lewis rats; details: p.o.
Experimental: 3. Reverse Passive Arthus Reaction
A reverse passive Arthus reaction is induced in the pleural cavity of male Lewis rats (150-200 g; fasted overnight prior to use) by the intravenous administration of bovine serum albumin (BSA; 4 mg/0.2 ml) followed 30 minutes later by the injection of rabbit anti-BSA (1 mg/2.0 ml; lyophilized IgG fraction; Organon Teknika, West Chester, Pa.) into the right pleural space under halothane anesthesia. Drugs or vehicle (0.5% Tween-80) control are administered orally in a volume of 1 ml/100 g body weight at 1 hour prior to the anti-BSA. Animals are sacrificed at either the time of peak eicosanoid production (i.e. 5 minutes after anti-BSA for immunoreactive T×B2, 10 minutes for immunoreactive LTB4, 20 minutes for immunoreactive LTC4) or at the time of peak neutrophil infiltration (4 hours after anti-BSA) by CO2 inhalation. The pleural cavity is then exposed, the fluid exudate removed by gentle vacuum aspiration and the volume of exudate is recorded. For the determination of cellular infiltration, the pleural cavity is rinsed with 3 ml of 0.1% EDTA in sterile saline, and the recovered wash is pooled with the exudate. Cell number is determined on a model ZBI Coulter counter. For determination of eicosanoid production, undiluted pleural exudate is microfuged and the supernatant is extracted with ethanol (8-10 times volume). Extracts are either stored at -20° C., or are evaporated to dryness under a stream of N2 and reconstituted in radioimmunoassay (RIA) buffer.
Eicosanoids are quantitated by RIA according to the procedure specified by the RIA kit manufacturer (Advanced Magnetics, Cambridge, MA). Briefly, 100 μl of ^3 H-labeled eicosanoid and 100 μl of specific antibody are sequentially added to 100 μl of extracted pleural exudate in BGG-phosphate buffer which contains 0.01M phosphate, 0.1% bovine gamma globulin and 0.1% sodium azide at pH 7.0. Antibody-bound eicosanoid is separated from unbound eicosanoid by the addition of 750 μl of dextran (0.4%)-coated charcoal (Norit A) containing 0.1% sodium azide. The mixture is centrifuged at 2000 RPM at 5° C. for 15 minutes to pellet the charcoal and adsorbed unbound eicosanoid. Antibody-bound labeled eicosanoid is quantitated by counting in a liquid scintillation counter, and is correlated to concentration by a standard curve.

[2] = 5 mg/kg, pretreatment period 6 hr

SMILES	% Inhibition of LTB4 (Lipoxygenase; 10 mg/kg, pretreatment period 3 hr)	% Inhibition of LTB4 (Lipoxygenase; 10 mg/kg, pretreatment period 6 hr)	inhibition in vivo at 10 mg/kg [1]	% Inhibition of LTB4 Synthesis (LTB4; 10 mg/kg)	% Inhibition of LTB4 Synthesis (LTB4; 25 mg/kg)	% Inhibition of LTB4 (Lipoxygenase; [2])	inhibition in vivo at 25 mg/kg ([1]; po)	inhibition in vivo at 50 mg/kg ([1]; po, 50 mg/kg)
Cc1oc(-c2ccccc2)nc1COc1ccc(CN(O)C(N)=O)cc1 [Example 1, 1-Hydroxy-1-4-(5-methyl-2-phenyl-oxazol-4-ylmethoxy)-benzyl!-urea]	84%	75%	38%	36%	69%	–	–	–
Cc1oc(-c2ccc(C(F)(F)F)cc2)nc1COc1ccc(CN(O)C(N)=O)cc1 [Example 6, 1-Hydroxy-1-4-5-methyl-2-(4-trifluoromethyl-phenyl)-oxazol-4-ylmethoxy!-benzyl!-urea]	–	–	27%	45%	–	70%	27%	–
NC(=O)N(O)Cc1ccc(OCc2coc(-c3ccccc3)n2)cc1 [Example 9, 1-Hydroxy-1-4-(2-phenyl-oxazol-4-ylmethoxy)-benzyl!-urea]	–	–	54%	60%	–	60%	–	44%
NC(=O)N(O)Cc1ccc(OCc2csc(-c3ccccc3)n2)cc1 [Example 10, 1-Hydroxy-1-4-(2-phenyl-thiazol-4-ylmethoxy)-benzyl!-urea]	–	–	50%	99%	–	67%	24%	–
